1 compound from PMC12362615, “Design, Synthesis, and Cellular Characterization of a New Class of IPMK Kinase Inhibitors” (Journal of Medicinal Chemistry, 2025) can be followed below.

Like-named read-outs stand apart in the source and are kept apart here.

Series [1] concerns the target T1, purified recombinant human IPMK kinase domain (Homo sapiens, UniProt Q8NFU5).
T1 sequence (Q8NFU5 with tags, fused parts or gaps): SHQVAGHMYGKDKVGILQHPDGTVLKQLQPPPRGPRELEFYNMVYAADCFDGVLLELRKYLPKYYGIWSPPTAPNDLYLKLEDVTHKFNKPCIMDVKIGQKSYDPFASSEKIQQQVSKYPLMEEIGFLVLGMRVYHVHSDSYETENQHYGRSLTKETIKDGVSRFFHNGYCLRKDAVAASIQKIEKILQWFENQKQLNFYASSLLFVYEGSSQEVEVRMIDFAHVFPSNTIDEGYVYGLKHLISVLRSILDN
Kind of series: IPMK IC50 determination, Kinase-Glo assay. It is filed as biochemical. From the text:
(§1) These assay conditions were optimized with respect to reaction time, IPMK enzyme concentration, and IP3 concentration to determine the IC50 values for these ATP-competitive compounds.
For orientation: Kinase-Glo measures the ATP left after a reaction by luminescence.

Series [2] deals with purified recombinant human IPMK kinase domain. Kind of series: IPMK IC50 determination, Kinase-Glo assay. It is filed as biochemical. Conditions: compared to compound 3.
Excerpt: as §1

The target of series [3] is T2, purified recombinant human IP6K2 kinase domain (Homo sapiens, UniProt Q9UHH9).
T2 sequence (Q9UHH9 1-426): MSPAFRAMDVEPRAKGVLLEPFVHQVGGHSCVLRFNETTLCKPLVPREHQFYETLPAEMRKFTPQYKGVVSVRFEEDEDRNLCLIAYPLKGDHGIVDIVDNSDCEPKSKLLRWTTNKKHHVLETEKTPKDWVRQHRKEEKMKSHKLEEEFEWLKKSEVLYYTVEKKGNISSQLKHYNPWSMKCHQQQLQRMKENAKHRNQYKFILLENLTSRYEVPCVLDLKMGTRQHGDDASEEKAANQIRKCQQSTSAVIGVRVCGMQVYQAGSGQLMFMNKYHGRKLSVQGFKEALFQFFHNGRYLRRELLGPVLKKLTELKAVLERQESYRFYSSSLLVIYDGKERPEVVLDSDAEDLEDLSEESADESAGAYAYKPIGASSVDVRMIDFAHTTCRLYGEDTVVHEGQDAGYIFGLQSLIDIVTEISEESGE
Kind of series: IP6K2 IC50 determination, malachite green Pi release assay. Type of series: biochemical. The method, then:
IP6K2 IC50 values were determined using the purified recombinant human IP6K2 kinase domain expressed in a 384-well clear polystyrene plate (VWR 82051-264). This human IP6K2 kinase domain (100 nM) was used at 37 °C in 50 μL reaction mixtures containing 5.0 μM human Dipp1, 50 mM Tris (pH 6.9), 10 mM MgCl2, 0.02% Triton X-100, 25 μM InsP6, and 50 μM ATP for 30 min. Pi release was determined with a malachite green colorimetric assay. Reactions were quenched by the addition of 12.5 μL of phosphate detection reagent (MAK3071KT, Sigma-Aldrich). Pi release was quantified from the absorbance at 620 nm by using appropriate standards.

A short description of series [4]: Solubility. It is filed as physicochemical.

As to `Cc1cc(C)cc(-c2onc3ccc(-c4nnn[nH]4)cc23)c1` [Compound 4, 3-(3,5-Dimethylphenyl)-5-(1H-tetrazol-5-yl)benzo[c]isoxazole], the IC50 – broadly, the concentration that gives 50% inhibition – was determined as 25 ± 1.6 nM in series [1] (Kinase-Glo assay, 12.5 μM Ins(1,4,5)P3, 10 μM ATP, read-out: IC50 toward recombinant human IPMK); 24.7 ± 1.6 nM in series [1] (supplementary csv, read-out: IPMK IC50); 113 ± 69.5 nM in series [3] (supplementary csv). Besides, the “improved potency toward IPMK compared to compound 3” value in series [2] was determined as 9 fold. In addition, the IP6K2/IPMK in series [3] (Table S1, ratio of IC50 values) is 4.6. The “solubility compared to compound 3” value in series [4] is on record as “improved”.
